Laboratory results: US9289447B2, “Chemotherapeutic methods and compositions” (Gilead Biologics, Inc., priority 2009, dated 2016)

T1: LOXL2 (Homo sapiens, UniProt Q9Y4K0)
T1 sequence (Q9Y4K0 26-774): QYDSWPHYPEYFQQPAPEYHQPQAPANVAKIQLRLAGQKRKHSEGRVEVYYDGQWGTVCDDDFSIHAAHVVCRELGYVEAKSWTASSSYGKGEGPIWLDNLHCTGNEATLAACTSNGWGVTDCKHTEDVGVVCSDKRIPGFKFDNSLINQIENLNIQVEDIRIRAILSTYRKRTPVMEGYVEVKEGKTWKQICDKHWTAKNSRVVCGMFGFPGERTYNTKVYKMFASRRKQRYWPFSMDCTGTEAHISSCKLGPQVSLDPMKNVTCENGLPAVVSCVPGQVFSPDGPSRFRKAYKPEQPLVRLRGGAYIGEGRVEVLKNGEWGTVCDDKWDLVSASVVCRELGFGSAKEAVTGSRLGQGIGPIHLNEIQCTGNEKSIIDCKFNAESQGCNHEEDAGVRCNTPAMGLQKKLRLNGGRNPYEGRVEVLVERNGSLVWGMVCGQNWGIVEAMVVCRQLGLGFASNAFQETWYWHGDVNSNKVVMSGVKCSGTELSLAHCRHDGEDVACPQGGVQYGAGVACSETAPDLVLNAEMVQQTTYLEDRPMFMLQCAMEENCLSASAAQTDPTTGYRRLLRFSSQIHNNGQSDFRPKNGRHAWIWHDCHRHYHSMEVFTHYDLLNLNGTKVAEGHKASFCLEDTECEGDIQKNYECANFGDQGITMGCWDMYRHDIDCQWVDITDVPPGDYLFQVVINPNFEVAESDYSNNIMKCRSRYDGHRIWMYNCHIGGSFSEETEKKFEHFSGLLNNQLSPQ

B1: M20: monoclonal anti-LOXL2 antibody described in co-owned US 2009/0053224; variable regions SEQ ID NO: 12 and 13 (antibody, V domains shown)
VH: MEWSRVFIFLLSVTAGVHSQVQLQQSGAELVRPGTSVKVSCKASGYAFTYYLIEWVKQRPGQGLEWIGVINPGSGGTNYNEKFKGKATLTADKSSSTAYMQLSSLTSDDSAVYFCARNWMNFDYWGQGTTLTVSS
VL: MRCLAEFLGLLVLWIPGAIGDIVMTQAAPSVSVTPGESVSISCRSSKSLLHSNGNTYLYWFLQRPGQSPQFLIYRMSNLASGVPDRFSGSGSGTAFTLRISRVEAEDVGVYYCMQHLEYPYTFGGGTKLEIK

Tests used:
Capan-1 cells = assay: Chemotherapeutic sensitivity of Capan-1 cells on extracellular matrices with anti-LOXL2 antibody; format: cell-based; settings: Capan-1 cells plated on different extracellular matrices
Method: (§1) Panc-1 or Capan-1 cells (pancreas adenocarcinoma cell lines, ATCC, Manassas, Va.) are resuspended in medium containing 10-50 μg/mL anti-LOXL2 or control IgG antibody. Cells are seeded into 96 well tissue culture plates (10^3-10^4 cells in 100 μL per well) coated with poly-L-lysine, collagen I, collagen IV, fibronectin, or Matrigel™ (BD Biosciences, San Jose, Calif.). Alternatively, cells are plated in standard 96 well tissue culture plates (Costar, VWR International, West Chester, Pa.). Cells are incubated overnight at 37° C. in a 5% CO2 incubator. After sixteen to twenty hours, various concentrations of gemcitabine, docetaxel, doxorubicin, 5-FU or erlotinib are added. Cells are incubated for 3-5 days at 37° C. in a 5% CO2 incubator, and the number of remaining live cells are quantified using the Cell Titer-Glo® luminescent cell viability assay (Promega, Madison, Wis.) according to the manufacturer's instructions. For each condition, samples are assayed in triplicate. The data are analyzed using GraphPad Prism software (or equivalent) to calculate IC50 values from a 4-parameter logistic equation.

MDA-MB-435 cells = assay: Chemotherapeutic sensitivity of MDA-MB-435 cells on extracellular matrices with anti-LOXL2 antibody; format: cell-based, human; settings: MDA-MB-435 cells plated on different extracellular matrices
Method: MDA-MB-435 cells (breast adenocarcinoma cell lines, ATCC, Manassas, Va.) are resuspended in medium containing 10-50 μg/mL anti-LOXL2 or control IgG antibody. Cells are seeded into 96 well tissue culture plates (10^3-10^4 cells in 100 μL per well) coated with poly-L-lysine, collagen I, collagen IV, fibronectin, or Matrigel™ (BD Biosciences, San Jose, Calif.). Alternatively, cells are plated in standard 96 well tissue culture plates (Costar, VWR International, West Chester, Pa.). Cells are incubated overnight at 37° C. in a 5% CO2 incubator. After sixteen to twenty hours, various concentrations of cisplatin (DDP), methotrexate, doxorubicin, docetaxel, gemcitabine, or 5-FU are added. Cells are incubated for 3-5 days at 37° C. in a 5% CO2 incubator, and the number of remaining live cells are quantified using the Cell Titer-Glo® luminescent cell viability assay (Promega, Madison, Wis.) according to the manufacturer's instructions. For each condition, samples are assayed in triplicate. The data are analyzed using GraphPad Prism software (or equivalent) to calculate IC50 values from a 4-parameter logistic equation.

Panc-1 cells = assay: Chemotherapeutic sensitivity of Panc-1 cells on extracellular matrices with anti-LOXL2 antibody; format: cell-based; settings: Panc-1 cells plated on different extracellular matrices
Method: as §1

MDA231 cells = assay: Erlotinib sensitivity (live cell number) of siRNA-transfected MDA231 cells; format: cell-based, human; settings: for effect of siRNA transfection on sensitivity of the cells to erlotinib: MDA 231 cells grown on collagen, 5 days exposure to erlotinib; for effect of siRNA on sensitivity of the cells to erlotinib: MDA 231 cells grown on tissue culture plastic, separate experiments
Method: Cells from each of the four aforementioned lines were seeded at 3,000 cells per well in 96-well plates (VWR International, West Chester, Pa.), and cultured in Dulbecco's Modified Eagle's Medium supplemented with 10% fetal bovine serum (DMEM/FBS) at 37° C., 5% CO2 and atmospheric oxygen. Cells were cultured either in untreated wells or in collagen-coated wells, obtained or prepared as described above. Twenty-four hours later, medium was replaced with fresh medium containing various concentrations of erlotinib (LC Laboratories, Woburn, Mass.), cisplatin (Calbiochem, Gibbstown, N.J.) or methotrexate (Calbiochem, Gibbstown, N.J.). After 5 days' culture in the presence of the drug, live cell numbers were determined using the Cell Titer-Glo® luminescent cell viability assay (Promega, San Luis Obispo, Calif.) according to the manufacturer's instructions. For each cell line, three samples were assayed at each drug concentration.
(§2) MDA231 cells were seeded at 7,500 cells per well in 96-well plates (VWR International, West Chester, Pa.) in DMEM/FBS at 37° C., 5% CO2 and atmospheric oxygen. Cells were transfected at the time of seeding with […] RNA oligonucleotide, using the Dharmafect transfection reagent according to the manufacturer's instructions (Thermo Scientific, Lafayette, Colo.). Twenty-four hours later, the medium was replaced with medium containing various concentrations of erlotinib (LC Laboratories, Woburn, Mass.). After 5 days continuous exposure to drug, live cell number was determined as described in Example 1. For each condition, (LOX siRNA, LOXL2 siRNA, or non-targeting siRNA), three samples were assayed at each drug concentration. In addition, levels of mRNAs encoding LOX and LOXL 2 were determined in the in the samples transfected with the LOX- and LOXL2-targeted siRNAs, and normalized to levels of RPL19 mRNA (which encodes a ribosomal protein).

LOX mRNA = assay: Quantitative PCR of LOX mRNA in siRNA-transfected MDA 231 cells; format: cell-based, human; settings: normalized to RPL19 mRNA, compared to non-targeting siRNA, FIG. 13
Method: as §2, with “For each condition, (LOX siRNA, LOXL2 siRNA, or non-targeting siRNA), three samples were assayed at each drug concentration.” left out
(§3) For RNA analysis, mRNA was harvested using an RNEasy Mini kit (Qiagen, Valencia, Calif.) according to the manufacturer's instructions. A quantitative PCR reaction was assembled using the Brilliant II Core reagent kit according to the manufacturer's instructions (Agilent Technologies, Cedar Creek, Tex.). The quantitative PCR reaction cycle was as follows: 30 min at 50° C., 10 min at 95° C. and 40 cycles of 15 sec at 95° C. in combination with 1 min at 60° C.

LOXL2 mRNA = assay: Quantitative PCR of LOXL2 mRNA in siRNA-transfected MDA 231 cells; format: cell-based, human; settings: normalized to RPL19 mRNA, compared to non-targeting siRNA, FIG. 13
Method: as §2, with “For each condition, (LOX siRNA, LOXL2 siRNA, or non-targeting siRNA), three samples were assayed at each drug concentration.” left out
as §3

LOXL2 [1] = target: T1, LOXL2; settings: as disclosed in US 2009/0053224; cited from earlier work
LOXL2 [2] = target: T1, LOXL2; settings: as disclosed in US 2009/0053224; cited from earlier work; remark: listed apart in the source

| Molecule | sensitivity of cells to the chemotherapeutic in the presence of anti-LOXL2 antibodies (Capan-1 cells) | sensitivity of cells to the chemotherapeutic in the presence of anti-LOXL2 antibodies (MDA-MB-435 cells) | sensitivity of cells to the chemotherapeutic in the presence of anti-LOXL2 antibodies (Panc-1 cells) | also measured |
| --- | --- | --- | --- | --- |
| O=c1[nH]cc(F)c(=O)[nH]1 [5-FU, 5-fluorouracil] | increased sensitivity | increased sensitivity | increased sensitivity |  |
| N.N.[Cl][Pt][Cl] [cisplatin (DDP), cis-diaminedichloroplatinum(II)] |  | increased sensitivity |  |  |
| CC(=O)O[C@@]12CO[C@@H]1C[C@H](O)[C@@]1(C)C(=O)[C@H](O)C3=C(C)[C@@H](OC(=O)[C@H](O)[C@@H](NC(=O)OC(C)(C)C)c4ccccc4)C[C@@](O)([C@@H](OC(=O)c4ccccc4)[C@H]21)C3(C)C [docetaxel] | increased sensitivity | increased sensitivity | increased sensitivity |  |
| COc1cccc2c1C(=O)c1c(O)c3c(c(O)c1C2=O)C[C@@](O)(C(=O)CO)C[C@@H]3O[C@H]1C[C@H](N)[C@H](O)[C@H](C)O1 [doxorubicin] | increased sensitivity | increased sensitivity | increased sensitivity |  |
| C#Cc1cccc(Nc2ncnc3cc(OCCOC)c(OCCOC)cc23)c1 [erlotinib, N-(3-ethynylphenyl)-6,7-bis(2-methoxyethoxy)quinazolin-4-amine] | increased sensitivity |  | increased sensitivity | killing of cells by erlotinib (MDA231 cells; MDA 231 cells on collagen matrix, transfected with siRNA nonhomologous to LOX or LOXL2, FIG. 14): resistant to killing |
| Nc1ccn([C@@H]2O[C@H](CO)[C@@H](O)C2(F)F)c(=O)n1 [gemcitabine] | increased sensitivity | increased sensitivity | increased sensitivity |  |
| CN(Cc1cnc2nc(N)nc(N)c2n1)c1ccc(C(=O)N[C@@H](CCC(=O)O)C(=O)O)cc1 [methotrexate] |  | increased sensitivity |  |  |
| LOX-targeted siRNA: short RNA homologous to regions near the 3' end of LOX mRNA, from Invitrogen: ACAGGGAUUGAGUCCUGGCUGUUAU (listed as RNA, chemistry not given here) |  |  |  | reduction of levels of LOX mRNA (LOX mRNA): over two-fold; effect of siRNA transfection on sensitivity of the cells to erlotinib (MDA231 cells; FIG. 14): greatly increased sensitivity; effect of siRNA on sensitivity of the cells to erlotinib (MDA231 cells): little or no effect |
| LOXL2-targeted siRNA: siRNA homologous to the second SRCR domain of LOXL2, from Invitrogen: UCAACGAAUUGUCAAAUUUGAACCC (listed as RNA, chemistry not given here) |  |  |  | effect of siRNA transfection on sensitivity of the cells to erlotinib (MDA231 cells; FIG. 14): greatly increased sensitivity; effect of siRNA on sensitivity of the cells to erlotinib (MDA231 cells): little or no effect; reduction of levels of LOXL2 mRNA (LOXL2 mRNA): five-fold |
| B1 |  |  |  | binding site on LOXL2 (LOXL2 [1]): binds to the SRCR3-4 domain of LOXL2; extent of inhibition of LOXL2 enzymatic activity (LOXL2 [2]): partial inhibitor; mode of inhibition of LOXL2 enzymatic activity (LOXL2 [2]): non-competitive inhibitor |
